Reference: US20230042936A1, “PYRIDO[2,3-d]PYRIMIDIN-7(8H)-ONES AS CDK INHIBITORS” (PROSENESTAR LLC, priority 2020, published 2023)
Where two headings read alike, the source gives them in different places.

How the values were obtained:
CDC7/DBF4 = CDC7/DBF4 (Homo sapiens, UniProt O00311); assay: Kinase profiling; type: biochemical; conditions: 10 semi-logarithmic dilutions from 50 μM, singlicate; read-out: IC50 CDC7/DBF4
CDK1/CycB1 = CDK1/CycB1 (Homo sapiens, UniProt P06493); assay: Kinase profiling; type: biochemical
CDK12wt/CycK = CDK12wt/CycK (Homo sapiens, UniProt Q9NYV4); assay: Kinase profiling; type: biochemical; conditions: 10 semi-logarithmic dilutions from 50 μM, singlicate
CDK12wt/CycK, sequence (Q9NYV4 whole entry): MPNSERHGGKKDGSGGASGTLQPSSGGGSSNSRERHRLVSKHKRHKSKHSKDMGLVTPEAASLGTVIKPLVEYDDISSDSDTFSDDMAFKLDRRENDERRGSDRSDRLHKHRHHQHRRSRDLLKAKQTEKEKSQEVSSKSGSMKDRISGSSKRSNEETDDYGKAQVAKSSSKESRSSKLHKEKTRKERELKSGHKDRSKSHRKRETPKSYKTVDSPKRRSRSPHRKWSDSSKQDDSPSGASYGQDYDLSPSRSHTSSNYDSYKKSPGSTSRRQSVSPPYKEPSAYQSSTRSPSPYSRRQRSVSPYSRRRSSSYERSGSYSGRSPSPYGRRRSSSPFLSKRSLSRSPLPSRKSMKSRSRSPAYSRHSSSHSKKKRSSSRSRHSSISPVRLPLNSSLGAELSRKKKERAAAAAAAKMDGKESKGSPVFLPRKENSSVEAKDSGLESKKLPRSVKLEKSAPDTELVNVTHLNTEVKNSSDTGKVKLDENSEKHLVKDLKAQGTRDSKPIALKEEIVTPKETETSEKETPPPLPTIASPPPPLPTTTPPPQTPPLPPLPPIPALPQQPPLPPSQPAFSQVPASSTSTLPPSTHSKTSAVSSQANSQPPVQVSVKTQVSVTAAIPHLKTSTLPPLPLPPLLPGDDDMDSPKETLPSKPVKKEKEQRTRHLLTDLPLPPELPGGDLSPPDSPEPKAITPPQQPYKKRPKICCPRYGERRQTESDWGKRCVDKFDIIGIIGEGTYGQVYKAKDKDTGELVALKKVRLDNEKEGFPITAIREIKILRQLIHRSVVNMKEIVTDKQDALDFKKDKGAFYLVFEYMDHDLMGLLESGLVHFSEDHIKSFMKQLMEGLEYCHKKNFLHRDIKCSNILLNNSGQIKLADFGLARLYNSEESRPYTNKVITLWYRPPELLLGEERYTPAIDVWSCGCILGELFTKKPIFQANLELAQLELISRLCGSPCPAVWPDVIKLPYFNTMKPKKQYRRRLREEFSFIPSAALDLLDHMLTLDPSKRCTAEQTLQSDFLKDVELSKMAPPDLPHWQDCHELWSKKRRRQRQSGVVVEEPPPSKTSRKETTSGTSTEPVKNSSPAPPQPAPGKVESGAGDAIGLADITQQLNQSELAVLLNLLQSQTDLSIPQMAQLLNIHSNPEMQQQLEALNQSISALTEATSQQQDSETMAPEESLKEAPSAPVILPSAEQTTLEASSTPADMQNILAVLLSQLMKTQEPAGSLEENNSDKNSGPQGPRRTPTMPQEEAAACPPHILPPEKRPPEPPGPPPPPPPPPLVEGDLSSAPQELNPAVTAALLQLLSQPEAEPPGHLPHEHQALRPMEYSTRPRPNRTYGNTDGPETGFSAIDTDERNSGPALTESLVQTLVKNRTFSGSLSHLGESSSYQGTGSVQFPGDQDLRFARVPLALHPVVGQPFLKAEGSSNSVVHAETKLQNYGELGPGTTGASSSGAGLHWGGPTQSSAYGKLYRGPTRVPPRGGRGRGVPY
CDK12wt/CycK, sequence (O75909 whole entry partner): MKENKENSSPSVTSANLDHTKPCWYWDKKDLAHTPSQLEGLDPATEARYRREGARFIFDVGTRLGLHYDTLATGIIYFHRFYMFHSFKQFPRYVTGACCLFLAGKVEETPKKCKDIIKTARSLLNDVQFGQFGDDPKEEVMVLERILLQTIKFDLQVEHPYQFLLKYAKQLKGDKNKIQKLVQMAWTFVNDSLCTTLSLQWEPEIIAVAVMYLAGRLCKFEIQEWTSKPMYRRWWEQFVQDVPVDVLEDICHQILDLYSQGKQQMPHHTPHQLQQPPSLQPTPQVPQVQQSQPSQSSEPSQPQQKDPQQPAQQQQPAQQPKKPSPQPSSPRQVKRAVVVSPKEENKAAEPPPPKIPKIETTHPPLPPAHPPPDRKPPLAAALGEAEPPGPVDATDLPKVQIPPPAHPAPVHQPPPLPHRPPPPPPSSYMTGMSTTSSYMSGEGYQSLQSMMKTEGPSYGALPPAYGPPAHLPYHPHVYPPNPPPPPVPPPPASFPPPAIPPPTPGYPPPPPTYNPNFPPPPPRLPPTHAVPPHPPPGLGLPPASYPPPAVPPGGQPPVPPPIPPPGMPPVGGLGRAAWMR

CDK2/CycA2 = CDK2/CycA2 (Homo sapiens, UniProt P24941); assay: Kinase profiling; type: biochemical
CDK4/CycD1 = CDK4/CycD1 (Homo sapiens, UniProt P11802); assay: Kinase profiling; type: biochemical; conditions: 10 semi-logarithmic dilutions from 50 μM, singlicate
CDK5/p25NCK = CDK5/p25NCK (Homo sapiens, UniProt Q00535); assay: Kinase profiling; type: biochemical
CDK5/p35NCK = CDK5/p35NCK (Homo sapiens, UniProt Q00535); assay: Kinase profiling; type: biochemical
CDK6/CycD3 = CDK6/CycD3 (Homo sapiens, UniProt Q00534); assay: Kinase profiling; type: biochemical; conditions: 10 semi-logarithmic dilutions from 50 μM, singlicate
CDK6/CycD3, sequence (Q00534 whole entry): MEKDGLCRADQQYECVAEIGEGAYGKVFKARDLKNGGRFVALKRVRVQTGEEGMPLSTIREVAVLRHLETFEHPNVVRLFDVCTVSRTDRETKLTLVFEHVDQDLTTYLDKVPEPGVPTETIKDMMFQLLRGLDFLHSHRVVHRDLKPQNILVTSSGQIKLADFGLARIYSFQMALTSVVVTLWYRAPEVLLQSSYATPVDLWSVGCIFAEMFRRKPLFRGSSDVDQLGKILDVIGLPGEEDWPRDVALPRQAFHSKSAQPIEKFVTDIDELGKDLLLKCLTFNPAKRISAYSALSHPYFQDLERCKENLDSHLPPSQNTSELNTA
CDK6/CycD3, sequence (P30281 whole entry partner): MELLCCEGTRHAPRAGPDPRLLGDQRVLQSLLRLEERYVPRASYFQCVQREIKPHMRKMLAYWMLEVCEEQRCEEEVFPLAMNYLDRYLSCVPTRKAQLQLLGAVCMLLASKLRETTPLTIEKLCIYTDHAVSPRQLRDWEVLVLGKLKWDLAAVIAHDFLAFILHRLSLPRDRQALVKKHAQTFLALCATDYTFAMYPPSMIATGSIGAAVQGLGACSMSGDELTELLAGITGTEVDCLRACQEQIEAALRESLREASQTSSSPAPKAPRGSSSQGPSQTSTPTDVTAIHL

CDK7/CycH/MAT1 = CDK7/CycH/MAT1 (Homo sapiens, UniProt P50613); assay: Kinase profiling; type: biochemical; conditions: 10 semi-logarithmic dilutions from 50 μM, singlicate
CDK7/CycH/MAT1, sequence (P50613 whole entry): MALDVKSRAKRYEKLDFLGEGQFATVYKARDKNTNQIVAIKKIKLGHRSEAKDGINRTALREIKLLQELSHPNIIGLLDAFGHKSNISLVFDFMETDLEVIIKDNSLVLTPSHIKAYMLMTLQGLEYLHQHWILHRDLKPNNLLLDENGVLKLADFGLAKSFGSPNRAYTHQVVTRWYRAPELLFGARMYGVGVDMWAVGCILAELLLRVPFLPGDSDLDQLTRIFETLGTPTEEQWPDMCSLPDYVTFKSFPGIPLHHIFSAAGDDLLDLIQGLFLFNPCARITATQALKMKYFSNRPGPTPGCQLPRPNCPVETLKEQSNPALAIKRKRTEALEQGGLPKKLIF
CDK7/CycH/MAT1, sequence (P51946 whole entry partner): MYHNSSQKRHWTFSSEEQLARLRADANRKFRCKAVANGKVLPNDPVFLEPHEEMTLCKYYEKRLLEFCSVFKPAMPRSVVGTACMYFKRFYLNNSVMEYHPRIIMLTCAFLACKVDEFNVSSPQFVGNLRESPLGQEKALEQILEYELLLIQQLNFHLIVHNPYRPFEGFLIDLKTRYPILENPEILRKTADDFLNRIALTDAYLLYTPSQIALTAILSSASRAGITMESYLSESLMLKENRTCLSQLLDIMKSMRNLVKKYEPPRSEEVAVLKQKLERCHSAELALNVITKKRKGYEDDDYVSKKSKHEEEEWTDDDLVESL
CDK7/CycH/MAT1, sequence (P51948 whole entry partner): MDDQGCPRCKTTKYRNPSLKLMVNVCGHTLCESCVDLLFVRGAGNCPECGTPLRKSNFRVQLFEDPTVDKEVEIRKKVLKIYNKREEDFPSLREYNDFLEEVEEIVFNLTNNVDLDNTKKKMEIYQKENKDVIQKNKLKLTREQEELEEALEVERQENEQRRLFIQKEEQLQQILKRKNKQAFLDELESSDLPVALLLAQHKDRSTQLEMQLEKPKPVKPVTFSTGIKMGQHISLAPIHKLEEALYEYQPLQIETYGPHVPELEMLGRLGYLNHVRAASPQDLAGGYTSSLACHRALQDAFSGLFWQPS

ERK1 = ERK1 (Homo sapiens, UniProt P27361); assay: Kinase profiling; type: biochemical; conditions: 10 semi-logarithmic dilutions from 50 μM, singlicate
HIPK2 = HIPK2 (Homo sapiens, UniProt Q9H2X6); assay: Kinase profiling; type: biochemical; conditions: 10 semi-logarithmic dilutions from 50 μM, singlicate; read-out: IC50 HIPK2
HIPK2, sequence (Q9H2X6 whole entry): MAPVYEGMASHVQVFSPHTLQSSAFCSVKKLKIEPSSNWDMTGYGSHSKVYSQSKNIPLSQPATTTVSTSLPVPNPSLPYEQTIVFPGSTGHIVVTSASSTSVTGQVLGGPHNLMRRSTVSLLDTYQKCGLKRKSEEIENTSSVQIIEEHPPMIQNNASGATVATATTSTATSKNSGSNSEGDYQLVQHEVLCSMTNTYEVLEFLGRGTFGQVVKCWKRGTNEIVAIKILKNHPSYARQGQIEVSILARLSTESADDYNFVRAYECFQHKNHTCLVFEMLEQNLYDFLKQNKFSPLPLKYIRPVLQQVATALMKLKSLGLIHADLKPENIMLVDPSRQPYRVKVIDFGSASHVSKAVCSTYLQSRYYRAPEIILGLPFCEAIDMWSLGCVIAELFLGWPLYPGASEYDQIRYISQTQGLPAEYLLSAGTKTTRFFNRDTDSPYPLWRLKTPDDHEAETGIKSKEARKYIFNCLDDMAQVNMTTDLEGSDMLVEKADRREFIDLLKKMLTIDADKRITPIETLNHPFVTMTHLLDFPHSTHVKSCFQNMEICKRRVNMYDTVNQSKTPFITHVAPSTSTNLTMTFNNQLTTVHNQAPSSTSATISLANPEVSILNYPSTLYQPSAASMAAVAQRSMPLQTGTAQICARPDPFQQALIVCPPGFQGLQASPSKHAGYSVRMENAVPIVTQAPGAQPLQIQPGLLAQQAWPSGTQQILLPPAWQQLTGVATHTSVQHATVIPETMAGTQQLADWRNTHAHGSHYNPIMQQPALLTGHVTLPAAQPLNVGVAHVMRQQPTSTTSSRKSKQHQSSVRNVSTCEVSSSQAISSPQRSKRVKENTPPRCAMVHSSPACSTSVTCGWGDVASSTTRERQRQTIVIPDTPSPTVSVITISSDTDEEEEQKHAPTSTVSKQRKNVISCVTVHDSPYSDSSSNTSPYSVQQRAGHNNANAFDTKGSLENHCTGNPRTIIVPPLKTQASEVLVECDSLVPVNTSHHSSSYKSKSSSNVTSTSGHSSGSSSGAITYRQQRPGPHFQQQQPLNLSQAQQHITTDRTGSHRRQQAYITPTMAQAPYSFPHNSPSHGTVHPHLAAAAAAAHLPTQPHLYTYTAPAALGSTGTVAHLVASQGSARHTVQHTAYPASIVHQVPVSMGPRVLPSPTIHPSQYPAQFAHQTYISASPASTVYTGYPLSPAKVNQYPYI

[1] = tested on: H460 lung carcinoma cell line; assay: Proliferation assay: determination of GI50; type: cell-based, human; conditions: Table 3, 48 h, n = 2 independent experiments
Experimental: (§1) The following human tumor cell lines, all Retinoblastoma (Rb)-proficient, were used in this study: MDA-MB231 (breast cancer), MDA-MB453 (breast cancer), U87MG (glioblastoma) and H460 (lung cancer). MDA-MB468 (breast cancer) and SW1783 (glioblastoma) Rb-deficient cells were also included in the study, as well as the MCF10A non-transformed mammary epithelial cell line. Tumor cell lines were maintained in DMEM or RPMI-1640 medium, depending on the cell line, supplemented with 10% FBS. MCF10A cells were grown in complete mammary epithelial growth medium (MEGM, Lonza). Cell lines were authenticated by short tandem repeat (STR) loci profiling with the GenePrint® 10 System (Promega).
(§2) All human cancer cell lines (Table 2) were obtained from the American Type Culture Collection, and were maintained in DMEM (Hyclone) or RPMI-1640 medium (Sigma) supplemented with 10% fetal bovine serum (Sigma). Non-transformed MCF10 cell line was maintained in MEGM Mammary Epithelial Cell Growth Medium (Lonza). Immortalized mouse embryonic fibroblasts (MEFs) were maintained in DMEM with 10% fetal bovine serum.
(§3) 48 h later cells were fixed with PFA 4% for 15 minutes, stained with 10 μg/ml Hoechst 33342 (Molecular Probes, Thermo Fisher) for 30 minutes and washed twice with PBS. Cells were imaged in a high content screening system (Opera Phoenix™, Perkin Elmer) using a 20× dry objective (30 fields/well). Cell counts were determined by the Opera software (Perkin Elmer) and data were further processed with SPSS software. GI50 was calculated by estimating the absolute IC50 using dose-response inhibition tool in Prism6 (Graphpad Software Inc.).

[2] = tested on: MCF10 non-transformed mammary epithelial cell line; assay: Proliferation assay: determination of GI50; type: cell-based, human; conditions: Table 3, 48 h, n = 2 independent experiments
Experimental: as §1, §2, §3

[3] = tested on: MDA-MB-231 breast carcinoma cell line; assay: Proliferation assay: determination of GI50; type: cell-based, human; conditions: Table 3, 48 h, n = 3 independent experiments, read-out: GI50 MDA-MB231
Experimental: as §1, §2, §3

[4] = tested on: U87MG glioblastoma cell line; assay: Proliferation assay: determination of GI50; type: cell-based, human; conditions: Table 3, 48 h, n = 3 independent experiments, read-out: GI50 U87MG
Experimental: as §1, §2, §3

MDA-MB-231 cells = assay: Senescence assay (β-Galactosidase staining); type: cell-based, human; conditions: at GI50; 3 days or 14 days exposure; FIGS. 2 and 3
Experimental: MDA-MB-231 cells were seeded in 6-well plates (65,000 cells/well) and treated with the selected compounds at their respective GI50. At 3, 7 and 14 days after treatment cells were stained with Senescence β-Galactosidase Staining Kit (Cell Signaling) at 37° C. overnight. Blue coloured senescent cells were counted with an optical microscope. Medium and compounds were refreshed every 3 days.
Cell cycle arrest can be irreversible in case of senescence induction.

[5] = 10 semi-logarithmic dilutions from 50 μM, singlicate

IC50 (CDC7/DBF4) [µM]	IC50 (CDK1/CycB1; [5]) [nM]	IC50 (CDK12wt/CycK) [nM]	IC50 (CDK2/CycA2; [5]) [nM]	IC50 (CDK4/CycD1) [nM]	IC50 (CDK5/p25NCK; [5]) [nM]	IC50 (CDK5/p35NCK; [5]) [nM]	IC50 (CDK6/CycD3) [nM]	IC50 (CDK7/CycH/MAT1) [µM]	IC50 (ERK1) [µM]	IC50 (HIPK2) [µM]	GI50 ([1]; Homo sapiens, NCI-H460) [nM]	GI50 ([3]; Homo sapiens, MDA-MB-231) [nM]	GI50 ([4]; Homo sapiens, U-87 MG) [nM]	Structure (SMILES)	GI50 ([2]; Homo sapiens, MCF10) [nM]	SA-βGAL staining (senescence induction) (MDA-MB-231 cells)	other results
1.98	614	339	49.7	8.86	652	255	33.3	2.37	10.7	> 50	440	1230	1120	O=c1ccc2cnc(Nc3ccc(N4CCC(OCC5(CO)COC5)CC4)cc3)nc2n1[C@@H]1CC2CCC1C2 (stereo partly drawn) [PS016, 8-((2R)-bicyclo[2.2.1]heptan-2-yl)-2-((4-(4-((3-(hydroxymethyl)oxetan-3-yl)methoxy)piperidin-1-yl)phenyl)amino)pyrido[2,3-d]pyrimidin-7(8H)-one]	130	–	–
1.53	40.7	30.8	13	< 1.5	72.5	34.7	16.9	0.0723	4.53	6.06	130	140	50	CC(O)CCN1CCN(c2ccc(Nc3ncc4ccc(=O)n([C@@H]5CC6CCC5C6)c4n3)cc2)CC1 (stereo partly drawn) [PS005, 8-((2R)-bicyclo[2.2.1]heptan-2-yl)-2-((4-(4-(3-hydroxybutyl)piperazin-1-yl)phenyl)amino)pyrido[2,3-d]pyrimidin-7(8H)-one]	50	–	–
13.5	2050	799	222	3.15	395	113	21.2	2.03	22.1	0.187	370	500	160	CC(=O)c1c(C)c2cnc(Nc3ccc(N4CCNCC4)cc3)nc2n([C@@H]2CC3CCC2C3)c1=O (stereo partly drawn) [PS010, 6-acetyl-8-((2R)-bicyclo[2.2.1]heptan-2-yl)-5-methyl-2-((4-(piperazin-1-yl)phenyl)amino)pyrido[2,3-d]pyrimidin-7(8H)-one]	80	–	–
0.537	97.3	25.8	17.1	< 1.5	52.3	15.9	9.66	0.0911	2.75	5.56	160	150	40	O=c1ccc2cnc(Nc3ccc(N4CCNCC4)cc3)nc2n1[C@@H]1CC2CCC1C2 (stereo partly drawn) [PS007, 8-((2R)-bicyclo[2.2.1]heptan-2-yl)-2-((4-(piperazin-1-yl)phenyl)amino)pyrido[2,3-d]pyrimidin-7(8H)-one]	70	–	–
14.6	42100	28400	19700	1270	> 50000	38600	12600	40.7	47.5	> 50	18000	35200	> 50000	O=c1ccc2cnc(Nc3ccc(N4CCC(CCCO)CC4)cc3F)nc2n1[C@@H]1CC2CCC1C2 (stereo partly drawn) [PS002, 8-((2R)-bicyclo[2.2.1]heptan-2-yl)-2-((2-fluoro-4-(4-(3-hydroxypropyl)piperidin-1-yl)phenyl)amino)pyrido[2,3-d]pyrimidin-7(8H)-one]	34600	–	–
> 50	721	28100	3520	98.9	9430	3680	672	11.8	0.949	5.58	2570	4500	2440	CC(=O)c1c(C)c2cnc(Nc3ccc(N4CCC(CCCO)CC4)cc3)nc2n([C@@H]2CC3CCC2C3)c1=O (stereo partly drawn) [PS008, 6-acetyl-8-((2R)-bicyclo[2.2.1]heptan-2-yl)-2-((4-(4-(3-hydroxypropyl)piperidin-1-yl)phenyl)amino)-5-methylpyrido[2,3-d]pyrimidin-7(8H)-one]	700	induced high levels of SA-βGAL staining	–
7.61	4690	3180	810	150	4660	1920	623	20	> 50	> 50	1600	3900	4100	O=c1ccc2cnc(Nc3ccc(N4CCC(CCCO)CC4)c(F)c3)nc2n1[C@@H]1CC2CCC1C2 (stereo partly drawn) [PS003, 8-((2R)-bicyclo[2.2.1]heptan-2-yl)-2-((3-fluoro-4-(4-(3-hydroxypropyl)piperidin-1-yl)phenyl)amino)pyrido[2,3-d]pyrimidin-7(8H)-one]	7500	induced high levels of SA-βGAL staining	–

Structure (SMILES)	IC50 (CDC7/DBF4) [µM]	IC50 (CDK1/CycB1; [5]) [nM]	IC50 (CDK12wt/CycK) [nM]	IC50 (CDK2/CycA2; [5]) [nM]	IC50 (CDK4/CycD1) [nM]	IC50 (CDK5/p25NCK; [5]) [nM]	IC50 (CDK5/p35NCK; [5]) [nM]	IC50 (CDK6/CycD3) [nM]	IC50 (CDK7/CycH/MAT1) [µM]	IC50 (ERK1) [µM]	IC50 (HIPK2) [µM]	GI50 ([1]; Homo sapiens, NCI-H460) [nM]	GI50 ([3]; Homo sapiens, MDA-MB-231) [nM]	GI50 ([4]; Homo sapiens, U-87 MG) [nM]	GI50 ([2]; Homo sapiens, MCF10) [nM]	SA-βGAL staining (senescence induction) (MDA-MB-231 cells)	other results
O=c1ccc2cnc(Nc3ccc(N4CCC(CCCO)CC4)cc3)nc2n1C1CC2CCC1C2 (stereo not drawn) [PD-0183812, reference compound]	18.8	–	3160	–	31.6	–	–	301	45.4	29.6	> 50	–	–	–	–	induced high levels of SA-βGAL staining	IC50 (CDK1/CycB1): 32100 nM; IC50 (CDK2/CycA2): 341 nM; IC50 (CDK5/p25NCK): 30100 nM; IC50 (CDK5/p35NCK): 1840 nM; GI50 [1]: 1570 nM; GI50 [2]: 3300 nM; GI50 [3]: 2150 nM; GI50 [4]: 7450 nM
